Source: patent US20260001928A1 (CORTERIA PHARMACEUTICALS, priority 2022, published 2026)
*1 amine or outer side, *2 acyl side, *3 side chain or, on linkers, in order; H or OH if unused. Where a SMILES comes first, the peptide text is derived from it. Side-chain parts run from the residue outwards. [ ]: non-standard residue; d: D form. The star is where a group is joined. C18 diacid = O=C(O)CCCCCCCCCCCCCCCCC(=O)*; C16 diacid = O=C(O)CCCCCCCCCCCCCCC(=O)*; γGlu = O=C(O)[C@H](CCC(=O)[*:2])N[*:1]; C14 diacid = O=C(O)CCCCCCCCCCCCC(=O)*; NMeI = CC[C@H](C)[C@H](NC)C(=O)O; Api = NC1(C(=O)O)CCNCC1; Abu = CC[C@H](N)C(=O)O; Pentanoyl = CCCCC(=O)*; AEEA = NCCOCCOCC(=O)O; Aib = CC(C)(N)C(=O)O

Assays:
human CRF2a receptor = target: T1, human CRF2a receptor (Homo sapiens, UniProt Q13324); assay: Activity at human CRF2a receptor, cAMP functional assay in TeloHEAC cells; type: cell-based; settings: TeloHEAC cells stably expressing human CRF2a receptor, relative to urocortin 2 (100 nM = 100%)
T1 construct: expressed in transfected cells; host or cells: TeloHEAC cells
T1 sequence (Q13324 1-411): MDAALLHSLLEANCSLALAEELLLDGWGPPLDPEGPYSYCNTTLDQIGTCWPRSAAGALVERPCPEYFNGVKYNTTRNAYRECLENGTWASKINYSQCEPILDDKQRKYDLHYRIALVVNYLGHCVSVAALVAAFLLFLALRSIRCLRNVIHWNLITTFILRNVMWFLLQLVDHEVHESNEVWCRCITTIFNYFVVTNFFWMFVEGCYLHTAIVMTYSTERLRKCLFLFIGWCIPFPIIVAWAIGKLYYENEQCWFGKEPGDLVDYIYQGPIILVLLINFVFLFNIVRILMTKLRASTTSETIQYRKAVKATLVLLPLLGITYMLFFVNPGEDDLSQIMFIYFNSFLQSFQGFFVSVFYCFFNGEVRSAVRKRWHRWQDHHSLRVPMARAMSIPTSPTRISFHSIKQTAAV
Outline: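 TeloHEAC cells stably expressing human CRF2a (10000 cells/well, suspended in HBSS/20 mM HEPES with 2 mM IBMX) were exposed to compounds for 30 min at 37 °C. cAMP was read as the 665/620 nm fluorescence ratio after 1 h at room temperature. EC50 was derived relative to 100 nM urocortin 2, set as 100%.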

CFR1R receptor = target: T2, CFR1R receptor (Homo sapiens, UniProt P34998); assay: Activity at anti-target CFR1R receptor, cAMP assay in CRF1R-overexpression CHO-K1 cells; type: cell-based; settings: 100% = Sauvagine at 100 nM; for EC50: cAMP
T2 construct: host or cells: CHO-K1 (clone 2)
T2 sequence (P34998 24-415): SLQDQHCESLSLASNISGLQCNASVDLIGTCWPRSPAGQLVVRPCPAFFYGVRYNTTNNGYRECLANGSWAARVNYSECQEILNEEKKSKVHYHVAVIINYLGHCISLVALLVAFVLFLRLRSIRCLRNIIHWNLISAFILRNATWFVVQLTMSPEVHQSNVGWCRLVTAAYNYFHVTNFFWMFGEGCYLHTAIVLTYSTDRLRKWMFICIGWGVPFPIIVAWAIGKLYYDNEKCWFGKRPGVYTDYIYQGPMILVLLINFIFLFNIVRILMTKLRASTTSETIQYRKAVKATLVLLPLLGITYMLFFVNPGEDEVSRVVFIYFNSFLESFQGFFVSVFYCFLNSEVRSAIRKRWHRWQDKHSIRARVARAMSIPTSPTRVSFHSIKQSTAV
Outline: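 Signal is normalised to 100 nM Sauvagine, taken as 100% activation, in clone 2 cells plated at a final 4000 cells/well from frozen stocks.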

Row | Structure (SMILES) | EC50 (human CRF2a receptor) | Emax (% I) (CFR1R receptor) | EC50 (CFR1R receptor)
1 | CCCCC(=O)N[C@H](C(=O)N[C@@H](CC(C)C)C(=O)N[C@@H](CO)C(=O)N[C@@H](CC(C)C)C(=O)N[C@@H](CC(=O)O)C(=O)N[C@@H](C(=O)N1CCC[C@H]1C(=O)N[C@H](C(=O)N[C@@H](CCCCN)C(=O)N[C@@H](CC(C)C)C(=O)N[C@@H](CCCCNC(=O)COCCOCCNC(=O)COCCOCCNC(=O)CC[C@H](NC(=O)CC[C@H](NC(=O)CCCCCCCCCCCCC(=O)O)C(=O)O)C(=O)O)C(=O)N[C@@H](CCCCN)C(=O)N[C@H](C(=O)N[C@@H](CC(C)C)C(=O)N[C@@H](CC(C)C)C(=O)N[C@@H](CCC(=O)O)C(=O)N[C@@H](CCC(N)=O)C(=O)N[C@@H](CCC(=O)O)C(=O)N[C@@H](CCCCN)C(=O)N[C@@H](CCC(N)=O)C(=O)N[C@@H](CCCCN)C(=O)N[C@@H](CCCCN)C(=O)N[C@@H](CCC(N)=O)C(=O)N[C@@H](CCCNC(=N)N)C(=O)N[C@@H](CCC(=O)O)C(=O)N[C@@H](CCC(N)=O)C(=O)N[C@@H](C)C(=O)N[C@@H](CCC(=O)O)C(=O)N[C@H](C(=O)N[C@@H](CC(N)=O)C(=O)NC(C)(C)C(=O)N[C@@H](CCC(N)=O)C(=O)N[C@H](C(=O)N[C@@H](CC(C)C)C(=O)N[C@@H](C)C(=O)N[C@@H](CCC(N)=O)C(=O)N[C@H](C(N)=O)C(C)C)[C@@H](C)CC)[C@@H](C)O)[C@@H](C)CC)[C@@H](C)CC)C(C)C)C(C)C [compound 181] (Pentanoyl-VLSLD[dV]PIKLK([AEEA-AEEA-γGlu-γGlu-C14 diacid])KILLEQEKQKKQREQAETN[Aib]QILAQV-NH2) | 24.7 nM | 9 % I | > 250 nM
2 | CC[C@H](C)[C@H](NC(C)=O)C(=O)N[C@H](C(=O)N[C@@H](CC(C)C)C(=O)N[C@@H](CO)C(=O)N[C@@H](CC(C)C)C(=O)N[C@@H](CC(=O)O)C(=O)N[C@@H](C(=O)N1CCC[C@H]1C(=O)N[C@H](C(=O)N[C@@H](CCCCN)C(=O)N[C@@H](CC(C)C)C(=O)N[C@@H](CCCCNC(=O)COCCOCCNC(=O)COCCOCCNC(=O)CC[C@H](NC(=O)CCCCCCCCCCCCC(=O)O)C(=O)O)C(=O)N[C@@H](CCCCN)C(=O)N[C@H](C(=O)N[C@@H](CC(C)C)C(=O)N[C@@H](CC(C)C)C(=O)N[C@@H](CCC(=O)O)C(=O)N[C@@H](CCC(N)=O)C(=O)N[C@@H](CCC(=O)O)C(=O)N[C@@H](CCCCN)C(=O)N[C@@H](CCC(N)=O)C(=O)N[C@@H](CCCCN)C(=O)NC(C)(C)C(=O)N[C@@H](CCC(N)=O)C(=O)N[C@@H](CCCNC(=N)N)C(=O)N[C@@H](CCC(=O)O)C(=O)N[C@@H](CCC(N)=O)C(=O)N[C@@H](C)C(=O)N[C@@H](CCC(=O)O)C(=O)N[C@H](C(=O)N[C@@H](CC(N)=O)C(=O)NC1(C(=O)N[C@@H](CCC(N)=O)C(=O)N[C@H](C(=O)N[C@@H](CC(C)C)C(=O)N[C@@H](C)C(=O)N[C@@H](CCC(N)=O)C(=O)N[C@H](C(N)=O)C(C)C)[C@@H](C)CC)CCNCC1)[C@@H](C)O)[C@@H](C)CC)[C@@H](C)CC)C(C)C)C(C)C [compound 173] (Ac-IVLSLD[dV]PIKLK([AEEA-AEEA-γGlu-C14 diacid])KILLEQEKQK[Aib]QREQAETN[Api]QILAQV-NH2) | 28.1 nM | −1 % I | > 250 nM
3 | CC[C@H](C)[C@H](NC(C)=O)C(=O)N[C@H](C(=O)N[C@@H](CC(C)C)C(=O)N[C@@H](CO)C(=O)N[C@@H](CC(C)C)C(=O)N[C@@H](CC(=O)O)C(=O)N[C@@H](C(=O)N1CCC[C@H]1C(=O)N[C@H](C(=O)N[C@@H](CCCCN)C(=O)N[C@@H](CC(C)C)C(=O)N[C@@H](CCCCNC(=O)CC[C@H](NC(=O)CC[C@H](NC(=O)CCCCCCCCCCCCCCC(=O)O)C(=O)O)C(=O)O)C(=O)N[C@@H](CCCCN)C(=O)N[C@H](C(=O)N[C@@H](CC(C)C)C(=O)N[C@@H](CC(C)C)C(=O)N[C@@H](CCC(=O)O)C(=O)N[C@@H](CCC(N)=O)C(=O)N[C@@H](CCC(=O)O)C(=O)N[C@@H](CCCCN)C(=O)N[C@@H](CCC(N)=O)C(=O)N[C@@H](CCCCN)C(=O)N[C@@H](CCCCN)C(=O)N[C@@H](CCC(N)=O)C(=O)N[C@@H](CCCNC(=N)N)C(=O)N[C@@H](CCC(=O)O)C(=O)N[C@@H](CCC(N)=O)C(=O)N[C@@H](C)C(=O)N[C@@H](CCC(=O)O)C(=O)N[C@H](C(=O)N[C@@H](CC(N)=O)C(=O)NC(C)(C)C(=O)N[C@@H](CCC(N)=O)C(=O)N[C@H](C(=O)N[C@@H](CC(C)C)C(=O)N[C@@H](C)C(=O)N[C@@H](CCC(N)=O)C(=O)N[C@H](C(N)=O)C(C)C)[C@@H](C)CC)[C@@H](C)O)[C@@H](C)CC)[C@@H](C)CC)C(C)C)C(C)C [compound 41] (Ac-IVLSLD[dV]PIKLK([γGlu-γGlu-C16 diacid])KILLEQEKQKKQREQAETN[Aib]QILAQV-NH2) | 1.85 nM | 7 % I | > 250 nM
4 | CC[C@H](NC(=O)[C@H](CC(N)=O)NC(=O)[C@@H](NC(=O)[C@H](CCC(=O)O)NC(=O)[C@H](C)NC(=O)[C@H](CCC(N)=O)NC(=O)[C@H](CCC(=O)O)NC(=O)[C@H](CCCNC(=N)N)NC(=O)[C@H](CCC(N)=O)NC(=O)[C@H](CCCCN)NC(=O)[C@H](CCCCN)NC(=O)[C@H](CCC(N)=O)NC(=O)[C@H](CCCCN)NC(=O)[C@H](CCC(=O)O)NC(=O)[C@H](CCC(N)=O)NC(=O)[C@H](CCC(=O)O)NC(=O)[C@H](CC(C)C)NC(=O)[C@H](CC(C)C)NC(=O)[C@@H](NC(=O)[C@H](CCCCN)NC(=O)[C@H](CCCCNC(=O)COCCOCCNC(=O)COCCOCCNC(=O)CC[C@H](NC(=O)CCCCCCCCCCCCCCCCC(=O)O)C(=O)O)NC(=O)[C@H](CC(C)C)NC(=O)[C@H](CCCCN)NC(=O)[C@@H](NC(=O)[C@@H]1CCCN1C(=O)[C@H](NC(=O)[C@H](CC(=O)O)NC(=O)[C@H](CC(C)C)NC(=O)[C@H](CO)NC(=O)[C@H](CC(C)C)NC(=O)[C@@H](NC(=O)[C@@H](NC)[C@@H](C)CC)C(C)C)C(C)C)[C@@H](C)CC)[C@@H](C)CC)[C@@H](C)O)C(=O)N[C@@H](CCC(N)=O)C(=O)N[C@H](C(=O)N[C@@H](CC(C)C)C(=O)N[C@@H](C)C(=O)N[C@@H](CCC(N)=O)C(=O)N[C@H](C(N)=O)C(C)C)[C@@H](C)CC [compound 114] (H-[NMeI]VLSLD[dV]PIKLK([AEEA-AEEA-γGlu-C18 diacid])KILLEQEKQKKQREQAETN[Abu]QILAQV-NH2) | 0.18 nM | 6 % I | > 250 nM
